The values that follow come from US8236860B2, “Inhibition of the survival of pancreatic cancer by cyclohexenone compounds from Antrodia camphorata” (Golden Biotechnology Corporation, priority 2009, dated 2012).

The assay deals with pancreatic cancer cell line BxPC-3. Kind of assay: In vitro survival assay (MTT) for anti-pancreatic cancer effects. Particulars: Homo sapiens, BxPC-3 cells, 48 hours treatment, 0.03-30 μg/ml, read-out: IC50 (half inhibition concentration), survival of pancreatic cancer cells. The class given is cell-based. As to the method: The compound 4--2,3-dimethoxy-6-methyl-5-(3,7,11-trimethyl-dodeca-2,6,10-trienyl)-cyclohex-2-enone of the formula (2) is explained below as an example for the present invention. The anti-cancer effects of 4--2,3-dimethoxy-6-methyl-5-(3,7,11-trimethyl-dodeca-2,6,10-trienyl)-cyclohex-2-enone was assessed using 3-(4,5-dimethylthiazol-2-yl)-2,5-diphenyltetrazolium bromide MTT) assay according to the anti-cancer drug screening model of National Cancer Institute (NCI) to analyze survival rates on pancreatic cancer cell line BxPC-3. […] Therefore, cyclohexenone compounds from Antrodia camphorata can be used for inhibiting the survival of pancreatic cancer cells and further be applied for the treatment of pancreatic cancer. The details of the examples are described as follows:
Inhibiting effects of pancreatic cancer cells by cyclohexenone compounds of Antrodia camphorata from example 1 were assessed according to the anticancer-drug screening model of National Cancer Institute (NCI). […] Survival of cell was analyzed using MTT assay. […]
The BxPC-3 cells were cultivated in RPMI 1640 medium supplemented with 10% fetal bovine serum, 100 IU/ml of Penicillin and […] of Streptomycin at 37° C., 5% CO2 for 24 hours. […] The absorbances were measured at 570 nm with an ELISA Reader to determine the survival rates.

For the compound `COC1=C(OC)C(O)C(C/C=C(\C)CC/C=C(\C)CCC=C(C)C)C(C)C1=O` (stereo not shown) [formula 2, 4--2,3-dimethoxy-6-methyl-5-(3,7,11-trimethyl-dodeca-2,6,10-trienyl)-cyclohex-2-enone], the IC50 turned out to be 1.44 µg/mL.
